Drawing on patent US8575165B2, “Methods for treating inflammatory disorders using 2,4-pyrimidinediamine compounds” (Rigel Pharmaceuticals, Inc., priority 2009, dated 2013), this text covers IL-10 and IL-23 for 26 molecules.

One assay relates to IL-10. The assay is described as follows: In vitro IL-10 assay: IL-10 ELISA of supernatant from IFNγ-primed THP-1 cells stimulated with SAC. The assay is classed as cell-based, human. The settings on record: effect on expression level of IL-10 in THP-1 cells primed with IFNγ and stimulated with 0.01% SAC; test compound 0.01 μM to 20 μM. Also noted: key: “+” indicates an increase in production; “−” indicates a decrease in production. On the procedure:
(§1) Exponentially growing THP-1 cells were plated (100K/well in 100 μL) in standard RPMI media (1% P/S+10% FBS) containing 50 ng/mL IFNγ (1000 U/mL) onto a white clear bottom 96 well plate and leave the cells in 37° C. incubator for 24 h.
(§2) After 24 h incubation, 100 μL of RPMI media containing 2× concentrated test compound per well was added to the above cell-culture media (final concentration of test compound was from 0.01 μM to 20 μM). The plates were pre-incubated for 1 h at 37° C. before being stimulated with SAC.
(§3) After 1 h compound pre-incubation, 10 μL per well of 20× concentrated SAC solution in RPMI media was added to give a final concentration of 0.01%, the plates were shaken and incubated at 37° C. for an additional 18 h.
(§4) 155 μL of the supernatant was harvested from each well and to the remaining 50 μL/well of the cell culture plate was added 50 μL of CELL TITER GLO® reagent. The plates were incubated for 1-2 minutes on a shaker and read for luminescence intensity to determine the compound cytotoxicity.
(§5) The cell culture supernatant collected above was used to carry out IL23 ELISA (65 μL-Supernatant) and IL10 ELISA (90 μL-Supernatant) as described below.
C. Human IL-10 ELISA Protocol (e-Biosciences)
Cell Culture Supernatant (90 μL from THP-1 cells primed with IFNγ (50 ng/mL-1000 U/mL) and stimulated with 0.01% SAC)
To 10.5 mL PBS was added 50 μL of anti-IL10 capture antibody (2.5 μg/mL), mixed well and 100 μL of the coating solution was added to each well of the 96 well white plates from Pierce. The plates were covered and incubated overnight at 4° C.
The anti-IL10 antibody-coated plates were washed 2× using TBST (use plate washer) and blocked the using 200 μL of 0.5% Casein for 1.5-2 h at RT with shaking.
The plates were washed 2× using TBST and the supernatant (100 μL/well) was transferred to the above pre-blocked/IL10-antibody-coated 96 well plate and incubated at RT for 1.5 h with shaking.
The plate was washed 4× using TBST (plate washer) and 100 μL/well detection antibody solution prepared from 2 μL of biotin labeled anti-IL-10 antibody in 11 mL 1% BSA/PBS solution (1-5000 dilution) was added. The plates were incubated for 1 hour with shaking at RT.
(§6) Again, the plate was washed 4× with TBST and 100 μL of HRP labeled Streptavidin (R&D Systems) solution (10 μL/10 mL 1% BSA solution) was added and incubated at RT for another 45 min with shaking.
After 45 min, the plate was washed with TBST 4× and 100 uL/well Super Signal ELISA Pico Chemiluminescent Substrate from Pierce (3.5 mL A+3.5 mL B+3.5 mL MQ water) was added, the plate was shaken for 1-2 minutes then read on a plate reader to quantify the amount of IL-10 secreted by the cells.

The test system of another assay is IL-23. The assay is described as follows: In vitro IL-23 assay: IL-23 (p19/p40) ELISA of supernatant from IFNγ-primed THP-1 cells stimulated with SAC. The assay is classed as cell-based, human. The arrangement: key: “+” indicates an increase in production; “−” indicates a decrease in production. The settings on record: effect on expression level of IL-23 in THP-1 cells primed with IFNγ and stimulated with 0.01% SAC; test compound 0.01 μM to 20 μM. On the procedure: as §1, §2, §3, §4, §5
B. Human IL-23 (p19/p40) ELISA Protocol (e-Biosciences)
Cell Culture Supernatant (65 μL from THP-1 cells primed with IFNγ (50 ng/mL-1000 U/mL) and stimulated with 0.01% SAC)
To 10.5 mL PBS was added 50 μL of anti-IL23 (p19) capture antibody (2.5 μg/mL), mixed well and 100 μL of the coating solution was added to each well of the 96 well white plates from Pierce, cover and incubate overnight at 4° C.
The anti-IL23 (p19)-antibody-coated plates were washed 2× using TBST (use plate washer) and the plates were blocked using 200 μL of 0.5% Casein for 1.5-2 h at room temperature with shaking.
The plates were washed 2× using TBST and the supernatant (65 μL/well) was transferred to the above pre-blocked/IL23(p19)-antibody-coated 96 well plate and incubated at RT for 1.5 h with shaking.
The plate was washed 4× using TBST (plate washer) and 100 μL/well of detection antibody solution was added. The detection antibody solution was prepared from 2 μL of biotin labeled anti-IL-12 (p40/p70) antibody in 11 mL 1% BSA/PBS solution (1-5000 dilution). The plates were incubated for 1 hour with shaking at RT.
as §6
After 45 min, the plate was washed with TBST 4× and 100 μL/well Super Signal ELISA Pico Chemiluminescent Substrate from Pierce (3.5 mL A+3.5 mL B+3.5 mL MQ water) was added, the plate was shaken for 1-2 minutes then read on a plate reader to quantify the amount of IL-23 secreted by the cells.

With `CCOC(=O)c1cnc(Nc2ccc(N3CCN(S(C)(=O)=O)CC3)c(Cl)c2)nc1NC1CC(C)(C)N(C)C(C)(C)C1` [Compound 19], in the assay on IL-10, the IL-10 entry is listed as “+”. In addition, the IL-23 result in the assay on IL-23 is given as “−”.

Turning to `CN1C(C)(C)CC(Nc2nc(Nc3ccc(N4CCN(S(C)(=O)=O)CC4)c(C(F)(F)F)c3)ncc2[N+](=O)[O-])CC1(C)C` [Compound 20], the IL-10 result with IL-10 is on record as “+”.

`CCN1C(=O)C(F)(F)Oc2cc(Nc3ncc(F)c(NC4CC(C)(C)N(C)C(C)(C)C4)n3)ccc21` [Compound 16]: in the assay on IL-10, the IL-10 result is “+”.

Consider `CN1C(C)(C)CC(CNc2nc(Nc3ccc(N4CCN(S(C)(=O)=O)CC4)c(C(F)(F)F)c3)ncc2F)C1(C)C` (centres unmarked) [Compound 7], for which, in the assay on IL-10, the IL-10 result is “+”. Besides, in the assay with IL-23, the IL-23 entry is on record as “−”.

On to `CN1C(C)(C)CC(Nc2nc(Nc3ccc(N4CCN(S(C)(=O)=O)CC4)c(C(F)(F)F)c3)ncc2C#N)CC1(C)C` [Compound 22], for which the IL-10 entry in the assay with IL-10 is given as “+”.

As to `CN1C(C)(C)CC(Nc2nc(Nc3ccc(N4CCN(S(=O)(=O)C5CC5)CC4)c(C(F)(F)F)c3)ncc2F)CC1(C)C` [Compound 11], in the assay with IL-10, the IL-10 result is recorded as “+”.

Regarding `CN1C(C)(C)CC(Nc2nc(Nc3ccc(N4CCN(S(C)(=O)=O)CC4)c(Cl)c3)ncc2C(F)(F)F)CC1(C)C` [Compound 26], the IL-10 entry in the assay with IL-10 is “+”.

Regarding `CN1CCN(c2ccc(Nc3ncc(F)c(NC4CC(C)(C)N(C)C(C)(C)C4)n3)cc2C(F)(F)F)CC1` [Compound 2], the IL-10 entry in the assay on IL-10 is “−”. The IL-23 result with IL-23 is listed as “−”.

Turning to `CN1C(C)(C)CC(Nc2nc(Nc3ccc(N4CCN(S(=O)(=O)C5CC5)CC4)c(Cl)c3)ncc2F)CC1(C)C` [Compound 15], the IL-10 result in the assay on IL-10 is “+”.

For `COc1ccc(Nc2ncc(F)c(NC3CC(C)(C)N(C)C(C)(C)C3)n2)cc1OC(F)F` [Compound 14], in the assay on IL-10, the IL-10 result was “+”.

With `CN1CCN(S(=O)(=O)c2ccc(Nc3ncc(F)c(NC4CC(C)(C)N(C)C(C)(C)C4)n3)cc2Cl)CC1` [Compound 8], the IL-10 result in the assay on IL-10 is listed as “+”. Also, in the assay on IL-23, the IL-23 entry is given as “−”.

`CN1C(C)(C)CC(Nc2nc(Nc3ccc(N4CCN(S(C)(=O)=O)CC4)c(Cl)c3)ncc2C#N)CC1(C)C` [Compound 23]: the IL-10 result in the assay on IL-10 is on record as “+”. The IL-23 result with IL-23 was “−”.

On to `CN1C(C)(C)CC(Nc2nc(Nc3ccc(N4CCN(S(C)(=O)=O)CC4)c(OC(F)F)c3)ncc2F)CC1(C)C` [Compound 13], for which, in the assay on IL-10, the IL-10 entry is “+”.

Consider `CCOC(=O)c1cnc(Nc2ccc(N3CCN(S(C)(=O)=O)CC3)c(C(F)(F)F)c2)nc1NC1CC(C)(C)N(C)C(C)(C)C1` [Compound 18], for which, in the assay on IL-10, the IL-10 entry was “+”. The IL-23 result in the assay on IL-23 is listed as “−”.

Turning to `CN1C(C)(C)CC(Nc2nc(Nc3ccc(N4CCN(S(C)(=O)=O)CC4)c(C#N)c3)ncc2F)CC1(C)C` [Compound 12], the IL-10 entry with IL-10 is given as “+”.

Consider `CN1C(C)(C)CC(Nc2nc(Nc3ccc(N4CCN(S(C)(=O)=O)CC4)c(C(F)(F)F)c3)ncc2F)CC1(C)C` [Compound 10], for which the IL-10 entry in the assay on IL-10 is “+”.

In the case of `CN1C(C)(C)CC(Nc2nc(Nc3ccc(N4CCN(S(C)(=O)=O)CC4)c(C(F)(F)F)c3)ncc2C(F)(F)F)CC1(C)C` [Compound 25], the IL-10 entry in the assay with IL-10 is “+”. Further, the IL-23 entry with IL-23 is “−”.

`CN1C(C)(C)CC(Nc2nc(Nc3ccc(N4CCN(S(C)(=O)=O)CC4)c(C(F)(F)F)c3)ncc2F)CC1(C)C` [Compound 1]: in the assay on IL-23, the IL-23 result is reported as “−”.

Turning to `CN1C(C)(C)CC(Nc2nc(Nc3ccc(N4CCN(S(C)(=O)=O)CC4)c(Cl)c3)ncc2F)CC1(C)C` [Compound 5], in the assay on IL-10, the IL-10 entry is reported as “+”.

`CN1C(C)(C)CC(Nc2nc(Nc3ccc(N4CCN(S(C)(=O)=O)CC4)c(C#N)c3)ncc2C#N)CC1(C)C` [Compound 24]: the IL-10 entry in the assay with IL-10 is listed as “+”.

With `CN1C(C)(C)CC(Nc2nc(Nc3ccc(N4CCN(S(C)(=O)=O)CC4)c(C(F)(F)F)c3)ncc2F)C1(C)C` (centres unmarked) [Compound 3], the IL-10 entry with IL-10 is given as “+”. Also, the IL-23 entry in the assay with IL-23 is “−”.

Consider `CN1C(C)(C)CC(Nc2nc(Nc3ccc(S(=O)(=O)N4CCNCC4)c(Cl)c3)ncc2F)CC1(C)C` [Compound 9], for which, in the assay on IL-10, the IL-10 result is “+”.

On to `CN1CCN(c2ccc(Nc3ncc(F)c(NC4CC(C)(C)N(C)C4(C)C)n3)cc2C(F)(F)F)CC1` (centres unmarked) [Compound 4], for which the IL-10 result in the assay with IL-10 is on record as “−”. In addition, the IL-23 result in the assay on IL-23 is on record as “−”.

For the molecule `CN1CCN(c2ccc(Nc3ncc(F)c(NC4CC(C)(C)N(C)C(C)(C)C4)n3)cc2Cl)CC1` [Compound 17], the IL-10 result in the assay on IL-10 was “−”.

With `CN1C(C)(C)CC(Nc2nc(Nc3ccc(N4CCN(S(C)(=O)=O)CC4)c(Cl)c3)ncc2[N+](=O)[O-])CC1(C)C` [Compound 21], the IL-10 entry with IL-10 is “+”.

`CN1CCN(c2ccc(Nc3ncc(F)c(NC4CC(C)(C)N(C)C(C)(C)C4)n3)cc2Cl)CC1` [Compound 6]: the IL-10 entry in the assay with IL-10 is listed as “+”.
